Data as given in patent US9012443B2 (Amgen Inc., priority 2011, dated 2015).
Where two headings read alike, the source gives them in different places.

Molecular target: Nav 1.7 (Homo sapiens (Human), UniProt Q15858)
Test: Nav 1.7 IWQ in vitro assay (IonWorks Quattro population patch-clamp)
Format: cell-based
Settings: for IC50: 293 cells stably transfected with Nav 1.7; for inhibition at […]: read-out: Nav 1.7 IWQ percent inhibition at […], read-out: Nav 1.7 IWQ percent inhibition at 4.9 μM
Experimental: Nav 1.7 or Nav 1.5 IWQ In Vitro Assay
293 Cells stably transfected with either Nav 1.7 or Nav 1.5 were recorded in population patch-clamp mode with the IonWorks® Quattro automated electrophysiology system in accordance with the manufacturer's specifications (Molecular Devices, LLC, Sunnyvale, Calif.). Sodium channel currents were measured in response to a train of depolarizations that induced successively greater inactivation.
Cells were then left unclamped for a period of 3 to 8 minutes while a single concentration of test compound was added. Cells were then reclamped and put through the same voltage protocol. Current at the end of the 26th pulse to −20 mV was subtracted from the peak current evoked by the 26th pulse to −20 mV to correct for leak current. Percent block was calculated for each concentration in duplicate, and IC50 curves were fitted to percent block as a function of concentration.

[1] = first part of table, read-out: Nav 1.7 IWQ IC50
[2] = second part of table, read-out: Nav1.7 IWQ IC50 IP

Sequence of Nav 1.7 (Q15858 whole entry): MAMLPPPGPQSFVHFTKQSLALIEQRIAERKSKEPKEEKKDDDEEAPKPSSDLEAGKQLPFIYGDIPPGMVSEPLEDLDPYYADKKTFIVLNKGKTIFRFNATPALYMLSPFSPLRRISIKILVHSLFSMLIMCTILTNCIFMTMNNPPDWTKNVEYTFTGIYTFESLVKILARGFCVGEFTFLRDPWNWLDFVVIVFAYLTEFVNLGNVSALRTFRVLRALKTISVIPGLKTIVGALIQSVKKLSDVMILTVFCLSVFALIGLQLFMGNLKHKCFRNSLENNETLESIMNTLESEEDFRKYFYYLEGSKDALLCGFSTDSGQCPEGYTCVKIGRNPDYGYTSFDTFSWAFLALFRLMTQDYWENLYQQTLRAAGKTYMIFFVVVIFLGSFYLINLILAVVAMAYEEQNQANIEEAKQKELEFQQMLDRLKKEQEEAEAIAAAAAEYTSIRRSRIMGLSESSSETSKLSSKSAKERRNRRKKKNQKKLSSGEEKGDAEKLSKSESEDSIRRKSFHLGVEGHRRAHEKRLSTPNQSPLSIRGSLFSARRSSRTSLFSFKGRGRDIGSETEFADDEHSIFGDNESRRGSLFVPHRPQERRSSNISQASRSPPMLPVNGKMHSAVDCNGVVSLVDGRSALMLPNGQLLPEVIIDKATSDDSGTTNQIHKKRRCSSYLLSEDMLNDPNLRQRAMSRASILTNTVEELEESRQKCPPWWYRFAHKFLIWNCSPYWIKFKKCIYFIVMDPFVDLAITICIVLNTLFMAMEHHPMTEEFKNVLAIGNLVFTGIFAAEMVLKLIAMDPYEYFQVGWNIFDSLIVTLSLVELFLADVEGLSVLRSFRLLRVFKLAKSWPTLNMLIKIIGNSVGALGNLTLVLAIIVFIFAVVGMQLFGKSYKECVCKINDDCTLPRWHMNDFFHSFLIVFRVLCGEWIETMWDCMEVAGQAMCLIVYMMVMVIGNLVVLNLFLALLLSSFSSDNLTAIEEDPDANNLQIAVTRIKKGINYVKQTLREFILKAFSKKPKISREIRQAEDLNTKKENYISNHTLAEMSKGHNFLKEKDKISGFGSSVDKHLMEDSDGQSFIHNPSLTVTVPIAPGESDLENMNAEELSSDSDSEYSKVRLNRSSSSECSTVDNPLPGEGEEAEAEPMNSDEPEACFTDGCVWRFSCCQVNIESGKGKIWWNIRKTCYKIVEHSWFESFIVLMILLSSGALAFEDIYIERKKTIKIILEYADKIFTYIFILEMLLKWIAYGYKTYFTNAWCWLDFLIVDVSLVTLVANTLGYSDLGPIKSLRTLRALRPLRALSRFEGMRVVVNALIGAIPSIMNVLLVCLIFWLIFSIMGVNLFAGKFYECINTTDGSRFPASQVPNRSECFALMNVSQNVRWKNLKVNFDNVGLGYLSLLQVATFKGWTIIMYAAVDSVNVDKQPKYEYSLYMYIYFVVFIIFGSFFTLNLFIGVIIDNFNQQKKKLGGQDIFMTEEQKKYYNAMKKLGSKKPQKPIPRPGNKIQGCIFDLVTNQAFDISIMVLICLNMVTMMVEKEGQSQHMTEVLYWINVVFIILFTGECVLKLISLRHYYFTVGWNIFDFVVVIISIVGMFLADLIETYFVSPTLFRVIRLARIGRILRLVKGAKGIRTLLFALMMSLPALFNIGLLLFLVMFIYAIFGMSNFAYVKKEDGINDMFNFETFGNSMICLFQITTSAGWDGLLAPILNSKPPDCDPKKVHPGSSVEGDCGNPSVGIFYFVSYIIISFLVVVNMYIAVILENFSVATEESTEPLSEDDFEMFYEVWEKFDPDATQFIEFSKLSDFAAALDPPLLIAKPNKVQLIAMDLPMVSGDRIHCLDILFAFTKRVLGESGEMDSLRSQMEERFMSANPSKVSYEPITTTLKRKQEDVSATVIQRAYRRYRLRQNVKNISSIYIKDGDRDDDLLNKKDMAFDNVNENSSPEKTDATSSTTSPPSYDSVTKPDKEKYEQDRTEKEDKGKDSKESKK

| SMILES | IC50 [1] [nM] | Nav1.7 Single Point Data IWQ (at […]) (%) | further results |
| --- | --- | --- | --- |
| CC1(c2ccccc2)CN(c2cccc3cc(S(=O)(=O)Nc4ncns4)ccc23)CCO1 (stereo not shown) [Example 15] | 1290 | – | – |
| COc1cnccc1NS(=O)(=O)c1ccc2c(-c3ccc(C(F)(F)F)cc3Cl)nccc2c1 [Example 52, 1-(2-CHLORO-4-(TRIFLUOROMETHYL)PHENYL)-N-(3-METHOXYPYRIDIN-4-YL)ISOQUINOLINE-6-SULFONAMIDE] | – | – | inhibition at […]: 16% |
| COc1c(F)cccc1-c1nccc2cc(S(=O)(=O)Nc3ccncn3)ccc12 [Example 157, 1-(3-FLUORO-2-METHOXYPHENYL)-N-(PYRIMIDIN-4-YL)ISOQUINOLINE-6-SULFONAMIDE] | – | – | IC50 [2]: 6390 nM |
| CN1CC(n2nccc2-c2cc(C(F)(F)F)ccc2-c2cccc3cc(S(=O)(=O)Nc4nccs4)ccc23)C1 [Example 82] | 70 | – | – |
| Cc1cnc(OC2CCCN(C)C2)c(-c2nccc3cc(S(=O)(=O)Nc4ccncn4)ccc23)c1 (stereo not shown) [Example 383, 1-(5-METHYL-2-((1-METHYLPIPERIDIN-3-YL)OXY)PYRIDIN-3-YL)-N-(PYRIMIDIN-4-YL)ISOQUINOLINE-6-SULFONAMIDE] | – | 30.2 | – |
| O=S(=O)(Nc1nccs1)c1ccc2c(N3CCCCC3c3ccccc3)ncnc2c1 (stereo not shown) [Example 538, 4-(2-PHENYLPIPERIDIN-1-YL)-N-(THIAZOL-2-YL)QUINAZOLINE-7-SULFONAMIDE] | – | 31.2 | – |
| O=S(=O)(Nc1ncns1)c1ccc2c(-c3ccc(C(F)(F)F)cc3O)nccc2c1 [Example 58, 1-(2-HYDROXY-4-(TRIFLUOROMETHYL)PHENYL)-N-(1,2,4-THIADIAZOL-5-YL)ISOQUINOLINE-6-SULFONAMIDE] | 600 | – | – |
| Cn1ccnc1-c1nccc2cc(S(=O)(=O)Nc3nccs3)ccc12 [Example 315, 1-(1-METHYL-1H-IMIDAZOL-2-YL)-N-(THIAZOL-2-YL)ISOQUINOLINE-6-SULFONAMIDE 2,2,2-TRIFLUOROACETATE] | – | 37 | IC50 [2]: > 10000 nM |
| O=S(=O)(Nc1ncns1)c1ccc2c(-c3ccc(Cl)cc3OC(F)F)cccc2c1 [Example 24] | 30 | – | – |
| O=S(=O)(Nc1ncns1)c1ccc2c(-c3ccc(C(F)(F)F)cc3Cl)nccc2c1 [Example 56, 1-(2-CHLORO-4-(TRIFLUOROMETHYL)PHENYL)-N-(1,2,4-THIADIAZOL-5-YL)ISOQUINOLINE-6-SULFONAMIDE] | 60 | – | – |
| O=S(=O)(Nc1ncns1)c1ccc2c(-c3ccc(Cl)cc3C(F)(F)F)nccc2c1 [Example 63, 1-(4-CHLORO-2-(TRIFLUOROMETHYL)PHENYL)-N-(1,2,4-THIADIAZOL-5-YL)ISOQUINOLINE-6-SULFONAMIDE] | 330 | – | – |
| O=S(=O)(Nc1ccncn1)c1ccc2c(-c3ccc(C(F)(F)F)cc3-c3ccncc3)cccc2c1 [Example 75] | 100 | – | – |
| CC(C)(O)C1CN(c2cccc3cc(S(=O)(=O)Nc4ncns4)ccc23)CCO1 (stereo not shown) [Example 20] | 3140 | – | – |
| O=S(=O)(Nc1ccncn1)c1ccc2c(-c3ccc(C(F)(F)F)cc3C3=CCNCC3)cccc2c1 [Example 48] | 30 | – | – |
| O=S(=O)(Nc1ncns1)c1ccc2c(-c3ccc(C(F)(F)F)cc3-c3cn[nH]c3)cccc2c1 [Example 21] | 20 | – | – |
| COc1cc(Cl)ccc1-c1cccc2cc(S(=O)(=O)Nc3cc(C)on3)ccc12 [Example 44] | – | – | inhibition at […]: 22.1% |
| O=S(=O)(Nc1nccs1)c1ccc2c(-c3ccc(C(F)(F)F)cc3-c3ccnn3C3CNC3)cccc2c1 [Example 81] | 40 | – | – |
| COc1cc(OC)c(-c2nccc3cc(S(=O)(=O)Nc4ncns4)ccc23)c(OC)c1 [Example 60, N-(1,2,4-THIADIAZOL-5-YL)-1-(2,4,6-TRIMETHOXYPHENYL)ISOQUINOLINE-6-SULFONAMIDE] | 1560 | – | – |
| COC(=O)C1CN(c2cccc3cc(S(=O)(=O)Nc4ncns4)ccc23)CCO1 (stereo not shown) [Example 17, METHYL 4-(6-(N-(1,2,4-THIADIAZOL-5-YL)SULFAMOYL)NAPHTHALEN-1-YL)MORPHOLINE-2-CARBOXYLATE] | 4560 | – | – |
| Cc1ccc(-c2cccc3cc(S(=O)(=O)Nc4ncns4)ccc23)c(Cl)c1 [Example 6] | 340 | – | – |
| CN1CC=C(c2cc(C(F)(F)F)ccc2-c2cccc3cc(S(=O)(=O)Nc4nccs4)ccc23)CC1 [Example 78] | 90 | – | – |

Now from value to compound, other results behind:

| IC50 [1] [nM] | Nav1.7 Single Point Data IWQ (at […]) (%) | SMILES | further results |
| --- | --- | --- | --- |
| – | 36 | Cn1ncnc1COc1nccc2cc(S(=O)(=O)Nc3ccncn3)ccc12 [Example 295, 1-((1-METHYL-1H-1,2,4-TRIAZOL-5-YL)METHOXY)-N-(PYRIMIDIN-4-YL)ISOQUINOLINE-6-SULFONAMIDE] | IC50 [2]: > 10000 nM |
| – | 49 | O=S(=O)(Nc1ccncn1)c1ccc2c(OCC(F)(F)C3CCOCC3)nccc2c1 [Example 299, 1-(2,2-DIFLUORO-2-(TETRAHYDRO-2H-PYRAN-4-YL)ETHOXY)-N-(PYRIMIDIN-4-YL)ISOQUINOLINE-6-SULFONAMIDE] | IC50 [2]: > 10000 nM |
| – | 20.2 | CN1CCN(Cc2cccc(-c3nccc4cc(S(=O)(=O)Nc5ccncn5)ccc34)c2)CC1 [Example 431, 1-(3-((4-METHYLPIPERAZIN-1-YL)METHYL)PHENYL)-N-(PYRIMIDIN-4-YL)ISOQUINOLINE-6-SULFONAMIDE] | – |
| – | 40 | O=S(=O)(Nc1ccncn1)c1ccc2c(OCc3ccc(-n4ccnc4)cc3)nccc2c1 [Example 301, 1-((4-(1H-IMIDAZOL-1-YL)BENZYL)OXY)-N-(PYRIMIDIN-4-YL)ISOQUINOLINE-6-SULFONAMIDE] | IC50 [2]: > 10000 nM |
| – | 45 | Cc1cc2c(cnn2C)cc1-c1nccc2cc(S(=O)(=O)Nc3ccncn3)ccc12 [Example 308] | IC50 [2]: > 10000 nM |
| – | 19.8 | COc1cc(C(F)(F)F)ccc1-c1nccc2cc(S(=O)(=O)n3ccc(N)n3)ccc12 [Example 390, 1-((1-(2-METHOXY-4-(TRIFLUOROMETHYL)PHENYL)ISOQUINOLIN-6-YL) SULFONYL)-1H-PYRAZOL-3-AMINE] | – |
| – | 20.3 | O=S(=O)(Nc1ncns1)c1ccc2c(N3CCCC3c3ccncc3)ncnc2c1 (stereo not shown) [Example 539, 4-(2-(PYRIDIN-4-YL)PYRROLIDIN-1-YL)-N-(1,2,4-THIADIAZOL-5-YL)QUINAZOLINE-7-SULFONAMIDE] | – |
| – | 27.5 | COc1cc(-c2ccncc2)ccc1-c1nccc2cc(S(=O)(=O)Nc3ccncn3)ccc12 [Example 451, 1-(2-METHOXY-4-(PYRIDIN-4-YL)PHENYL)-N-(PYRIMIDIN-4-YL)ISOQUINOLINE-6-SULFONAMIDE] | – |
| – | 20.6 | Cc1cnc(OC[C@@H]2CCOC2)c(-c2nccc3cc(S(=O)(=O)Nc4nccs4)ccc23)c1 [Example 387, (R)-1-(5-METHYL-2-((TETRAHYDROFURAN-3-YL)METHOXY)PYRIDIN-3-YL)-N-(THIAZOL-2-YL)ISOQUINOLINE-6-SULFONAMIDE] | – |
| – | 41.2 | O=S(=O)(Nc1nccs1)c1ccc2c(N3CCCC3c3ccccc3)ncnc2c1 (stereo not shown) [Example 537, 4-(2-PHENYLPYRROLIDIN-1-YL)-N-(THIAZOL-2-YL)QUINAZOLINE-7-SULFONAMIDE] | – |
| – | 27 | Cc1ccc2c(cnn2C)c1-c1nccc2cc(S(=O)(=O)Nc3ccncn3)ccc12 [Example 309] | IC50 [2]: > 10000 nM |
| – | 24 | Cn1cc(CCOc2nccc3cc(S(=O)(=O)Nc4ccncn4)ccc23)cn1 [Example 305, 1-(2-(1-METHYL-1H-PYRAZOL-4-YL)ETHOXY)-N-(PYRIMIDIN-4-YL)ISOQUINOLINE-6-SULFONAMIDE] | IC50 [2]: > 10000 nM |
